According to article PMC9453454, “Design, synthesis, and anticancer activity of three novel palbociclib derivatives” (Frontiers in Oncology, 2022):

Key:
MDA-MB-231 cells = assay: MTT in vitro cytotoxicity, MDA-MB-231; assay type: cell-based, human; details: MDA-MB-231 human breast cancer cells, MTT, 48 h; read-out: IC50
Experimental: (§1) Human lung cancer cells (NCI-H460, NCI-H1299, and A549), human breast cancer cells (MDA-MB-231, MDA-MB-453, and MCF-7), human liver cancer cells (Huh-7 and HepG2), human colon cancer cells (coca-2, HT-29, and HCT116), human cervical cancer cells (HeLa), human normal lung cells (BEAS-2B), and human normal […] (MCF-10) were from the State Key Laboratory of Pharmaceutical Biotechnology, Nanjing University. NCI-H460 were cultured in 1640 medium containing 10% fetal bovine serum (FBS). MDA-MB-231 were cultured in L15 medium containing 10% FBS without CO2, and other cell lines were cultured in DMEM medium containing 10% FBS CO2 in the incubator.
(§2) MTT assay was used to identify 14 different cell lines (human lung cancer cells NCI-H460, NCI-H1299, and A549; human breast cancer cells MDA-MB-231, MDA-MB-453, and MCF-7; human liver cancer cells Huh-7 and HepG2; human colon cancer cells coca-2, HT-29, and HCT116; and human cervical cancer cells HeLa) and 2 kinds of normal cell lines (human normal lung epithelial cells BEAS-2B, human normal breast epithelial cells MCF10-A) for quantitative analysis ([15]). In addition, 10-HCPT and palbociclib were used as positive control.
(§3) Cells were harvested during the logarithmic growth phase and seeded into 96-well plates at a density of 2.0×10^3 cells/well. After being incubated for 24 h, the cells were treated with different concentrations of various culture programs for 48 h. Afterwards, 20 μl of MTT solution (5 mg/ml) was added to each well, and the cells were incubated in a 5% CO2 atmosphere at 37°C for another 4 h. Then, the supernatant was discarded, and the formazan crystals were dissolved in 150 μl DMSO. Subsequently, the absorbance was measured at 570 nm via a Tecan microplate reader. The concentration that caused 50% inhibition of cell viability (IC50) values was calculated by GraphPad Software. Triplicate experiments were performed in parallel for each concentration, and the results are shown as the mean ± SD. The inhibitory ratio was calculated using the following formula: inhibitory ratio (%) = [1−(mean absorbance of experiment group)/(mean absorbance of control group)] × 100.

NCI-H460 cells = assay: MTT in vitro cytotoxicity, NCI-H460; assay type: cell-based, human; details: NCI-H460 human lung cancer cells, MTT, 48 h; read-out: IC50
Experimental: as §1, §2, §3

HT-29 cells = assay: MTT in vitro cytotoxicity, HT-29; assay type: cell-based, human; details: HT-29 human colon cancer cells, MTT, 48 h; read-out: IC50
Experimental: as §1, §2, §3

MDA-MB-453 cells = assay: MTT in vitro cytotoxicity, MDA-MB-453; assay type: cell-based, human; details: MDA-MB-453 human breast cancer cells, MTT, 48 h; read-out: IC50
Experimental: as §1, §2, §3

Coca-2 cells = assay: MTT in vitro cytotoxicity, Coca-2; assay type: cell-based, human; details: Coca-2 human colon cancer cells, MTT, 48 h; read-out: IC50
Experimental: as §1, §2, §3

NCI-H1299 cells = assay: MTT in vitro cytotoxicity, NCI-H1299; assay type: cell-based, human; details: NCI-H1299 human lung cancer cells, MTT, 48 h; read-out: IC50
Experimental: as §1, §2, §3

MCF10-A cells = assay: MTT in vitro cytotoxicity, MCF10-A normal breast epithelial cells; assay type: cell-based, human; details: MCF-10A; MCF10-A human normal breast epithelial cells, MTT, 48 h; read-out: IC50
Experimental: as §1, §2, §3

Hela cells = assay: MTT in vitro cytotoxicity, Hela; assay type: cell-based, human; details: Hela human cervical cancer cells, MTT, 48 h; read-out: IC50
Experimental: as §1, §2, §3

Huh-7 cells = assay: MTT in vitro cytotoxicity, Huh-7; assay type: cell-based, human; details: Huh-7 human liver cancer cells, MTT, 48 h; read-out: IC50
Experimental: as §1, §2, §3

MCF-7 cells = assay: MTT in vitro cytotoxicity, MCF-7; assay type: cell-based, human; details: MCF7; MCF-7 human breast cancer cells, MTT, 48 h; read-out: IC50
Experimental: as §1, §2, §3

HepG2 cells = assay: MTT in vitro cytotoxicity, HepG2; assay type: cell-based, human; details: HepG2 human liver cancer cells, MTT, 48 h; read-out: IC50
Experimental: as §1, §2, §3

BEAS-2B cells = assay: MTT in vitro cytotoxicity, BEAS-2B normal lung epithelial cells; assay type: cell-based, human; details: BEAS-2B human normal lung epithelial cells, MTT, 48 h; read-out: IC50
Experimental: as §1, §2, §3

A549 cells = assay: MTT in vitro cytotoxicity, A549; assay type: cell-based, human; details: A549 human lung cancer cells, MTT, 48 h; read-out: IC50
Experimental: as §1, §2, §3

HCT116 cells = assay: MTT in vitro cytotoxicity, HCT116; assay type: cell-based, human; details: HCT-116; HCT116 human colon cancer cells, MTT, 48 h; read-out: IC50
Experimental: as §1, §2, §3

SMILES	IC50 (MDA-MB-231 cells) [µM]	IC50 (NCI-H460 cells) [µM]	IC50 (HT-29 cells) [µM]	IC50 (MDA-MB-453 cells) [µM]	IC50 (Coca-2 cells) [µM]	melting point [°C]	IC50 (NCI-H1299 cells) [µM]	IC50 (MCF10-A cells) [µM]	IC50 (Hela cells) [µM]	IC50 (Huh-7 cells) [µM]	IC50 (MCF-7 cells) [µM]	IC50 (HepG2 cells) [µM]	IC50 (BEAS-2B cells) [µM]	IC50 (A549 cells) [µM]	IC50 (HCT116 cells) [µM]
CC[C@]1(O)C(=O)OCc2c1cc1n(c2=O)Cc2cc3cc(OC(=O)CCC(=O)N4CCN(c5ccc(Nc6ncc7c(C)c(C(C)=O)c(=O)n(C8CCCC8)c7n6)nc5)CC4)ccc3nc2-1 [HP-2, (R)-4-ethyl-4-hydroxy-3,14-dioxo-3,4,12,14-tetrahydro-1H-pyrano[3’,4’:6,7] indolizino[1,2-b]quinolin-9-yl4-(4-(6-((6-acetyl-8-cyclopentyl-5-methyl-7-oxo-7,8-dihydropyrido[2,3-d]pyrimidin-2-yl)amino)pyridin-3-yl)piperazin-1-yl)-4-oxobutanoate]	16.5 ± 0.82	1.32 ± 0.01	11.6 ± 0.57	6.38 ± 0.97	18.8 ± 0.46	48.9 to 50.5	3.35 ± 0.01	31.38 ± 0.23	7.82 ± 2.34	16.5 ± 1.76	16.7 ± 0.59	8.11 ± 1.34	34.8 ± 0.44	5.24 ± 0.37	19.6 ± 1.21
CC[C@]1(O)C(=O)OCc2c1cc1n(c2=O)Cc2cc3cc(OC(=O)/C=C/C(=O)N4CCN(c5ccc(Nc6ncc7c(C)c(C(C)=O)c(=O)n(C8CCCC8)c7n6)nc5)CC4)ccc3nc2-1 [HP-3, (R)-4-ethyl-4-hydroxy-3,14-dioxo-3,4,12,14-tetrahydro-1H-pyrano[3’,4’:6,7] indolizino[1,2-b]quinolin-9-yl(E)-4-(4-(6-((6-acetyl-8-cyclopentyl-5-methyl-7-oxo-7,8-dihydropyrido[2,3-d]pyrimidin-2-yl)amino)pyridin-3-yl)piperazin-1-yl)-4-oxobut-2-enoate]	27.3 ± 1.43	2.08 ± 0.25	15.4 ± 0.42	8.31 ± 0.52	17.1 ± 0.28	45.7 to 47.3	4.35 ± 0.13	37.3 ± 1.66	14.9 ± 0.73	33.7 ± 1.03	21.4 ± 1.27	6.84 ± 0.91	39.98 ± 0.16	5.52 ± 0.11	23.2 ± 0.49
CC(=O)c1c(C)c2cnc(Nc3ccc(N4CCNCC4)cn3)nc2n(C2CCCC2)c1=O [Palbociclib]	11.7 ± 1.75	2.95 ± 0.11	16.8 ± 0.39	5.15 ± 1.04	35.9 ± 0.41		5.09 ± 0.24	39.7 ± 0.57	21.35 ± 0.13	32.1 ± 1.93	8.73 ± 0.33	7.55 ± 1.49	38.8 ± 0.59	6.16 ± 0.19	31.6 ± 1.21
